Measurements published in patent US10961238B2, “Modulators of hedgehog (Hh) signaling pathway” (E-THERAPEUTICS PLC, priority 2016, dated 2021).
pIC50: −log10 of the molar value.

The compounds below were run on C3H10T1/2 cells (assay: C3H assay: differentiation of C3H10T1/2 cells by mSHH, measurement of alkaline phosphatase). Conditions: Mus musculus, C3H 10T1/2, 72 h, read-out: IC50 Ranges.
Type: cell-based, mouse
Work on O=C(OCCC1CCOCC1)N1CC(S(=O)(=O)N2CCC(c3c[nH]c4ncccc34)CC2)C1 [Compound 60, 2-Tetrahydropyran-4-ylethyl 3-[[4-(1H-pyrrolo[2,3-b]pyridin-3-yl)-1-piperidyl]sulfonyl]azetidine-1-carboxylate] yielded a pIC50 of 7.00 to 8.00.

Same assay, conditions: Mus musculus, C3H 10T1/2; C3H10T1/2 cells stimulated with mSHH for 72 hours; alkaline phosphatase activity; read-out: IC50 Ranges
Compound CC(C)(C)CC(C)(C)NC(=O)N1CC(S(=O)(=O)N2CCC(c3ccncc3)CC2)C1 [Compound 33, 3-(4-pyridin-4-ylpiperidin-1-yl)sulfonyl-N-(2,4,4-trimethylpentan-2-yl)azetidine-1-carboxamide] has a pIC50 of 7.00 to 8.00.
In the case of C[C@@H]1CN(C(=O)N2CC(S(=O)(=O)N3CCC(c4cnc5occc5c4)CC3)C2)C[C@H](C)O1 [Compound 35, [(2R,6S)-2,6-dimethylmorpholin-4-yl]-[3-(4-furo[2,3-b]pyridin-5-ylpiperidin-1-yl)sulfonylaze-tidin-1-yl]methanone], the pIC50 was 6.00 to 7.00.
With Cc1noc(C)c1NC(=O)N1CC(S(=O)(=O)N2CCC(c3cnc4c(c3)CCO4)CC2)C1 [Compound 36, 3-[4-(2,3-dihydrofuro[2,3-b]pyridin-5-yl)piperidin-1-yl]sulfonyl-N-(3,5-dimethyl-1,2-oxazol-4-yl)azetidine-1-carboxamide] the pIC50 was 5.00 to 6.00.
For Cc1noc(C)c1NC(=O)N1CC(S(=O)(=O)N2CCC(c3cnc4occc4c3)CC2)C1 [Compound 37, N-(3,5-dimethyl-1,2-oxazol-4-yl)-3-(4-furo[2,3-b]pyridin-5-ylpiperidin-1-yl)sulfonylaze-tidine-1-carboxamide], the pIC50 was 5.00 to 6.00.
With O=C(OC1CCCCC1)N1CC(S(=O)(=O)N2CCC(c3cnc4occc4c3)CC2)C1 [Compound 38, cyclohexyl 3-(4-furo[2,3-b]pyridin-5-ylpiperidin-1-yl)sulfonylaze-tidine-1-carboxylate] the pIC50 was 6.00 to 7.00.
In the case of Cc1noc(C)c1NC(=O)N1CC(S(=O)(=O)N2CCC(c3c[nH]c4cccnc34)CC2)C1 [Compound 39, N-(3,5-dimethyl-1,2-oxazol-4-yl)-3-[4-(1H-pyrrolo[3,2-b]pyridin-3-yl)piperidin-1-yl]sulfonylaze-tidine-1-carboxamide], the pIC50 was 7.00 to 8.00.
O=C(OC1CCCCC1)N1CC(S(=O)(=O)N2CCC(c3cn(C(=O)OC4CCCCC4)c4cccnc34)CC2)C1 [Compound 40, cyclohexyl 3-[1-(1-cyclohexyloxycarbonylazetidin-3-yl)sulfonylpiper-idin-4-yl]pyrrolo [3,2-b]pyridine-1-carboxylate] showed a pIC50 of 5.00 to 6.00.
Compound O=C(OC1CCCCC1)N1CC(S(=O)(=O)N2CCC(c3c[nH]c4cccnc34)CC2)C1 [Compound 41, cyclohexyl 3-[4-(1H-pyrrolo[3,2-b]pyridin-3-yl)piperidin-1-yl]sulfonylaze-tidine-1-carboxylate] has a pIC50 of 7.00 to 8.00.
For Cc1noc(C)c1NC(=O)N1CC(S(=O)(=O)N2CCC(c3cn(C)c4nccnc34)CC2)C1 [Compound 42, N-(3,5-dimethyl-1,2-oxazol-4-yl)-3-[4-(5-methylpyrrolo [2,3-b]pyrazin-7-yl)piperidin-1-yl]sulfonylaze-tidine-1-carboxamide], the pIC50 was 5.00 to 6.00.
Cc1noc(C)c1NC(=O)N1CC(S(=O)(=O)N2CCC(c3c[nH]c4nccnc34)CC2)C1 [Compound 43, N-(3,5-dimethyl-1,2-oxazol-4-yl)-3-[4-(5H-pyrrolo [2,3-b]pyrazin-7-yl)piperidin-1-yl]sulfonylaze-tidine-1-carboxamide] showed a pIC50 of 7.00 to 8.00.
For O=C(OC1CCCCC1)N1CC(S(=O)(=O)N2CCC(c3c[nH]c4nccnc34)CC2)C1 [Compound 44, cyclohexyl 3-[4-(5H-pyrrolo[2,3-b]pyrazin-7-yl)piperidin-1-yl]sulfonylaze-tidine-1-carboxylate], the pIC50 was 7.00 to 8.00.
CC1CC(c2c[nH]c3ncccc23)CCN1S(=O)(=O)C1CN(C(=O)OC(C)(C)C)C1 (stereo not shown) [Compound 46, tert-butyl 3-[2-methyl-4-(1H-pyrrolo [2,3-b]pyridin-3-yl)piperidin-1-yl]sulfonylaze-tidine-1-carboxylate] was tested, and the pIC50 was 5.00 to 6.00.
COc1ccc(C2CCN(S(=O)(=O)C3CN(C(=O)OC(C)(C)C)C3)CC2)nc1 [Compound 47, tert-butyl 3-[4-(5-methoxypyridin-2-yl)piperidin-1-yl]sulfonylaze-tidine-1-carboxylate] gave a pIC50 of 5.00 to 6.00.
COc1ccc(C2CCN(S(=O)(=O)C3CN(C(=O)OC(C)(C)C)C3)CC2)cn1 [Compound 48, tert-butyl 3-[4-(6-methoxypyridin-3-yl)piperidin-1-yl]sulfonylaze-tidine-1-carboxylate] was tested, and the pIC50 was 6.00 to 7.00.
In the case of CC(C)(C)OC(=O)N1CC(S(=O)(=O)N2CCC(c3c[nH]c4cccnc34)CC2)C1 [Compound 49, tert-butyl 3-[4-(1H-pyrrolo[3,2-b]pyridin-3-yl)piperidin-1-yl]sulfonylaze-tidine-1-carboxylate], the pIC50 was 7.00 to 8.00.
CN(C)CC(C)(C)OC(=O)N1CC(S(=O)(=O)N2CCC(c3c[nH]c4ncccc34)CC2)C1 [Compound 50, [1-(dimethylamino)-2-methylpropan-2-yl] 3-[4-(1H-pyrrolo[2,3-b]pyridin-3-yl)piperidin-1-yl]sulfonylaze-tidine-1-carboxylate] showed a pIC50 of 7.00 to 8.00.
For CN1CCC(COC(=O)N2CC(S(=O)(=O)N3CCC(c4c[nH]c5ncccc45)CC3)C2)CC1 [Compound 51, (1-methylpiperidin-4-yl)methyl 3-[4-(1H-pyrrolo [2,3-b]pyridin-3-yl)piperidin-1-yl]sulfonylaze-tidine-1-carboxylate], the pIC50 was 6.00 to 7.00.
In the case of CCN(CC)CCOC(=O)N1CC(S(=O)(=O)N2CCC(c3c[nH]c4ncccc34)CC2)C1 [Compound 52, 2-(diethylamino) ethyl 3-[4-(1H-pyrrolo [2,3-b]pyridin-3-yl)piperidin-1-yl]sulfonylaze-tidine-1-carboxylate], the pIC50 was 6.00 to 7.00.
In the case of CN1CCN(CCCOC(=O)N2CC(S(=O)(=O)N3CCC(c4c[nH]c5ncccc45)CC3)C2)CC1 [Compound 53, 3-(4-methylpiperazin-1-yl)propyl 3-[4-(1H-pyrrolo [2,3-b]pyridin-3-yl)piperidin-1-yl]sulfonylaze-tidine-1-carboxylate], the pIC50 was 5.00 to 6.00.
Compound O=C(OCCN1CCOCC1)N1CC(S(=O)(=O)N2CCC(c3c[nH]c4ncccc34)CC2)C1 [Compound 54, 2-morpholin-4-ylethyl 3-[4-(1H-pyrrolo [2,3-b]pyridin-3-yl)piperidin-1-yl]sulfonylaze-tidine-1-carboxylate] has a pIC50 of 7.00 to 8.00.
Cc1noc(C)c1CNC(=O)N1CC(S(=O)(=O)N2CCC(c3c[nH]c4ncccc34)CC2)C1 [Compound 55, N-[(3,5-dimethyl-1,2-oxazol-4-yl)methyl]-3-[4-(1H-pyrrolo[2,3-b]pyridin-3-yl)piperidin-1-yl]sulfonylaze-tidine-1-carboxamide] showed a pIC50 of 7.00 to 8.00.
Cc1noc(C)c1CCN1CC(S(=O)(=O)N2CCC(c3c[nH]c4ncccc34)CC2)C1 [Compound 56, 3,5-Dimethyl-4-[2-[3-[[4-(1H-pyrrolo[2,3-b]pyridin-3-yl)-1-piperidyl]sulfonyl]azetidin-1-yl]ethyl]isoxazole] gave a pIC50 of 7.00 to 8.00.
O=C(NC1(C(F)(F)F)CC1)N1CC(S(=O)(=O)N2CCC(c3c[nH]c4ncccc34)CC2)C1 [Compound 57, 3-[[4-(1H-Pyrrolo[2,3-b]pyridin-3-yl)-1-piperidyl]sulfonyl]-N-[1-(trifluoromethyl)cyclopropyl]azetidine-1-carboxamide] was tested, and the pIC50 was > 8.00.
O=C(OCCCN1CCCCC1)N1CC(S(=O)(=O)N2CCC(c3c[nH]c4ncccc34)CC2)C1 [Compound 58, 3-piperidin-1-ylpropyl 3-[4-(1H-pyrrolo[2,3-b]pyridin-3-yl)piperidin-1-yl]sulfonylaze-tidine-1-carboxylate] gave a pIC50 of 6.00 to 7.00.
O=C(OCCN1CCCCC1)N1CC(S(=O)(=O)N2CCC(c3c[nH]c4ncccc34)CC2)C1 [Compound 59, 2-piperidin-1-ylethyl 3-[4-(1H-pyrrolo [2,3-b]pyridin-3-yl)piperidin-1-yl]sulfonylaze-tidine-1-carboxylate] showed a pIC50 of 7.00 to 8.00.
Cc1noc(C)c1CN1CC(S(=O)(=O)N2CCC(c3c[nH]c4ncccc34)CC2)C1 [Compound 61, 3,5-dimethyl-4-[[3-[4-(1H-pyrrolo [2,3-b]pyridin-3-yl)piperidin-1-yl]sulfonylaze-tidin-1-yl]methyl]-1,2-oxazole] gave a pIC50 of 5.00 to 6.00.
Compound Cc1noc(C)c1COC(=O)N1CC(S(=O)(=O)N2CCC(c3c[nH]c4ncccc34)CC2)C1 [Compound 62, (3,5-Dimethylisoxazol-4-yl)methyl 3-[[4-(1H-pyrrolo[2,3-b]pyridin-3-yl)-1-piperidyl]sulfonyl]azetidine-1-carboxylate] has a pIC50 of 7.00 to 8.00.
In the case of Cc1noc(C)c1CC(=O)N1CC(S(=O)(=O)N2CCC(c3c[nH]c4ncccc34)CC2)C1 [Compound 63, 2-(3,5-dimethyl-1,2-oxazol-4-yl)-1-[3-[4-(1H-pyrrolo[2,3-b]pyridin-3-yl)piperidin-1-yl]sulfonylaze-tidin-1-yl]ethanone], the pIC50 was 7.00 to 8.00.
For CC1(C)CCCC(C)(C)N1C(=O)N1CC(S(=O)(=O)N2CCC(c3c[nH]c4ncccc34)CC2)C1 [Compound 64, [3-[4-(1H-pyrrolo[2,3-b]pyridin-3-yl)piperidin-1-yl]sulfonylaze-tidin-1-yl]-(2,2,6,6-tetramethylpiperidin-1-yl)methanone], the pIC50 was 7.00 to 8.00.
COCCOC(=O)N1CC(S(=O)(=O)N2CCC(c3c[nH]c4ncccc34)CC2)C1 [Compound 65, 2-methoxyethyl 3-[4-(1H-pyrrolo[2,3-b]pyridin-3-yl)piperidin-1-yl]sulfonylaze-tidine-1-carboxylate] showed a pIC50 of 6.00 to 7.00.
Compound CC(C)(C)COC(=O)N1CC(S(=O)(=O)N2CCC(c3c[nH]c4ncccc34)CC2)C1 [Compound 66, 2,2-dimethylpropyl 3-[4-(1H-pyrrolo[2,3-b]pyridin-3-yl)piperidin-1-yl]sulfonylaze-tidine-1-carboxylate] has a pIC50 of 7.00 to 8.00.
For O=S(=O)(C1CN(Cc2cccs2)C1)N1CCC(c2c[nH]c3ncccc23)CC1 [Compound 68, 3-[1-[1-(thiophen-2-ylmethyl)azetidin-3-yl]sulfonylpiper-idin-4-yl]-1H-pyrrolo[2,3-b]pyridine], the pIC50 was 6.00 to 7.00.
O=S(=O)(C1CN(Cc2ccc[nH]2)C1)N1CCC(c2c[nH]c3ncccc23)CC1 [Compound 69, 3-[1-[1-(1H-pyrrol-2-ylmethyl)azetidin-3-yl]sulfonylpiper-idin-4-yl]-1H-pyrrolo[2,3-b]pyridine] showed a pIC50 of 6.00 to 7.00.
